This is an account of results in US7205382B2, “Peptides, the production and use thereof for binding immunoglobulins” (Fresenius Medical Care Affina GmbH, priority 2000, dated 2007).

Bridge positions count the residues as written; N and C are the ends. Ends that are not written are not given here. cellulose = not defined here; βAla = NCCC(=O)O

What all share (format): binding
Holding throughout (set-up): key: No binding of immunoglobulin for the defined peptide variant, detection negative: 0; Binding of immunoglobulin for the defined peptide variant, detection positive: +

The subject of one assay is serum albumin. The assay can be described thus: Cellulose-immobilized 13-mer peptide variants incubated with serum albumin (negative control), anti-human IgG-AP detection. Conditions: blocking buffer without addition, 3 h room temperature. Here is the method: (§1) Peptides consisting of 13 amino acids were synthesized by solid phase synthesis (Houghten, 1985) on a cellulose matrix with (βA)(βA) as a spacer group.
(§2) The immobilized peptides were tested for their immunoglobulin binding capability by incubation with human IgG-Fc in a buffered solution and by incubation with human plasma.
(§3) Thus, the peptide variants immobilized on solid phases were washed with T-TBS buffer (136 mM NaCl, 1.6 mM KCl, 0.05% (v/v) Tween 20, 50 mM Tris-HCl, pH 8.0) and subsequently treated with blocking buffers (5% (w/v) saccharose, 4% (w/v) bovine serum albumin in T-TBS). Incubation of the immobilized peptides with IgG-Fc (1 μg/ml) in blocking buffer and human serum (diluted 1:10,000 in blocking buffer) was effected for 3 h at room temperature. For checking the specificity of the binding, buffered serum albumin solution (blocking buffer) without addition was included as a control. Thereafter, the peptide variants immobilized on the solid phases were washed three more times with T-TBS buffer.
(§4) After incubation with alkaline phosphatase-conjugated anti-human IgG antibody (1.2 μg/ml) in blocking buffer, detection of the immunoglobulin binding was effected by means of NBT (nitroblue tetrazolium chloride)/BCIP (5-bromo-4-chloro-3-indolyl phosphate toluidine salt) as a substrate (200 μl of parent solution (18.75 mg/ml NBT and 9.4 mg/ml BCIP in 67% (v/v) DMSO) in 10 ml developing buffer (100 mM Tris-HCl, 100 mM NaCl, 5 mM MgCl2, pH 9.5)).

In assay [1] the test system is immunoglobulins in human plasma. Briefly: Cellulose-immobilized 13-mer peptide variants incubated with human plasma, anti-human IgG-AP detection. Conditions: human plasma as sample, diluted 1:10,000 in blocking buffer, 3 h room temperature. Here is the method:
as §1, §2, §3, §4

In a further assay the test system is human IgG-Fc. The assay can be described thus: Cellulose-immobilized 13-mer peptide variants incubated with human IgG-Fc, anti-human IgG-AP detection. Conditions: IgG-Fc 1 μg/ml in blocking buffer, 3 h room temperature. The protocol: as §1, §2, §3, §4

Take “12I: cellulose-bound 13-mer variant DCAWHLGELVWIT-(βA)(βA) (DCAWHLGELVWIT-{βAla-βAla-cellulose}; not fully specified; printed as DCAWHLGELVWIT-(βA)(βA); reading uncertain)”: the “Result for incubation with serum albumin (immunoglobulin binding detection)” value (“Result for incubation with serum albumin” below) in the assay with serum albumin is reported as 0. The “Result for incubation with human plasma (immunoglobulin binding detection)” value (from here on “Result for incubation with human plasma”) in assay [1] worked out at 0. The “Result for incubation with human IgG-Fc (immunoglobulin binding detection)” value (from here on “Result for incubation with human IgG-Fc”) in the assay with human IgG-Fc is on record as 0.
In the case of “07R: cellulose-bound 13-mer variant DCAWHLRELVWCT-(βA)(βA) (DCAWHLRELVWCT-{βAla-βAla-cellulose}; disulfide 2-12 (inferred); not fully specified (N-terminus); printed as DCAWHLRELVWCT-(βA)(βA); reading uncertain)”, the “Result for incubation with serum albumin” value in the assay with serum albumin amounted to 0. The “Result for incubation with human plasma” value in assay [1] is 0. The “Result for incubation with human IgG-Fc” value in the assay on human IgG-Fc is on record as 0.
Consider “06M: cellulose-bound 13-mer variant DCAWHMGELVWCT-(βA)(βA) (DCAWHMGELVWCT-{βAla-βAla-cellulose}; disulfide 2-12 (inferred); not fully specified (N-terminus); printed as DCAWHMGELVWCT-(βA)(βA); reading uncertain)”, for which, in the assay with serum albumin, the “Result for incubation with serum albumin” value is given as 0. The “Result for incubation with human plasma” value in assay [1] was “+”. The “Result for incubation with human IgG-Fc” value in the assay on human IgG-Fc is given as “+”.
Consider “05M: cellulose-bound 13-mer variant DCAWMLGELVWCT-(βA)(βA) (disulfide 2-12 (inferred); not fully specified (N-terminus, C-terminus); printed as DCAWMLGELVWCT-(βA)(βA); also: cellulose-bound)”, for which the “Result for incubation with serum albumin” value with serum albumin is 0. The “Result for incubation with human plasma” value in assay [1] was determined as 0. In the assay with human IgG-Fc, the “Result for incubation with human IgG-Fc” value is 0.
On to “08R: cellulose-bound 13-mer variant DCAWHLGRLVWCT-(βA)(βA) (DCAWHLGRLVWCT-{βAla-βAla-cellulose}; disulfide 2-12 (inferred); reading uncertain; also: printed as DCAWHLGRLVWCT-(βA)(βA))”, for which, in the assay with serum albumin, the “Result for incubation with serum albumin” value was 0. In assay [1], the “Result for incubation with human plasma” value is listed as “+”. Besides, the “Result for incubation with human IgG-Fc” value with human IgG-Fc was “+”.
Turning to “11H: cellulose-bound 13-mer variant DCAWHLGELVHCT-(βA)(βA)”, the “Result for incubation with serum albumin” value in the assay on serum albumin was found to be 0. Also, the “Result for incubation with human plasma” value in assay [1] turned out to be 0. Besides, the “Result for incubation with human IgG-Fc” value with human IgG-Fc was “+”.
In the case of “05V: cellulose-bound 13-mer variant DCAWVLGELVWCT-(βA)(βA) (disulfide 2-12 (inferred); not fully specified (N-terminus, C-terminus); printed as DCAWVLGELVWCT-(βA)(βA); also: cellulose-bound)”, in the assay on serum albumin, the “Result for incubation with serum albumin” value worked out at 0. The “Result for incubation with human plasma” value in assay [1] was 0. Further, the “Result for incubation with human IgG-Fc” value in the assay on human IgG-Fc is reported as 0.
Take “03L: cellulose-bound 13-mer variant DCLWHLGELVWCT-(βA)(βA) (DCLWHLGELVWCT-{βAla-βAla-cellulose}; disulfide 2-12 (inferred); reading uncertain; also: printed as DCLWHLGELVWCT-(βA)(βA))”: the “Result for incubation with serum albumin” value with serum albumin was found to be 0. Moreover, in assay [1], the “Result for incubation with human plasma” value was 0. In addition, the “Result for incubation with human IgG-Fc” value in the assay on human IgG-Fc is recorded as 0.
As to “10S: cellulose-bound 13-mer variant DCAWHLGELSWCT-(βA)(βA) (DCAWHLGELSWCT-{βAla-βAla-cellulose}; disulfide 2-12 (inferred); reading uncertain; also: printed as DCAWHLGELSWCT-(βA)(βA))”, the “Result for incubation with serum albumin” value with serum albumin turned out to be 0. The “Result for incubation with human plasma” value in assay [1] came to 0. Also, in the assay on human IgG-Fc, the “Result for incubation with human IgG-Fc” value is on record as 0.
Regarding “07A: cellulose-bound 13-mer variant DCAWHLAELVWCT-(βA)(βA) (DCAWHLAELVWCT-{βAla-βAla-cellulose}; disulfide 2-12 (inferred); not fully specified (N-terminus); printed as DCAWHLAELVWCT-(βA)(βA); reading uncertain)”, in the assay with serum albumin, the “Result for incubation with serum albumin” value was determined as 0. In addition, the “Result for incubation with human plasma” value in assay [1] stood at 0. The “Result for incubation with human IgG-Fc” value in the assay on human IgG-Fc is listed as 0.
As to “04R: cellulose-bound 13-mer variant DCARHLGELVWCT-(βA)(βA) (disulfide 2-12 (inferred); not fully specified (N-terminus, C-terminus); printed as DCARHLGELVWCT-(βA)(βA); also: cellulose-bound)”, in the assay on serum albumin, the “Result for incubation with serum albumin” value was 0. The “Result for incubation with human plasma” value in assay [1] is reported as “+”. Moreover, the “Result for incubation with human IgG-Fc” value with human IgG-Fc was “+”.
With “01D: starting 13-mer DCAWHLGELVWCT-(βA)(βA), R1=amino, cellulose-bound”, the “Result for incubation with serum albumin” value in the assay on serum albumin was determined as 0. Further, the “Result for incubation with human plasma” value in assay [1] is “+”. Further, in the assay with human IgG-Fc, the “Result for incubation with human IgG-Fc” value is “+”.
“08N: cellulose-bound 13-mer variant DCAWHLGNLVWCT-(βA)(βA) (DCAWHLGNLVWCT-{βAla-βAla-cellulose}; disulfide 2-12 (inferred); not fully specified (N-terminus); printed as DCAWHLGNLVWCT-(βA)(βA); reading uncertain)”: the “Result for incubation with serum albumin” value in the assay on serum albumin was 0. In addition, in assay [1], the “Result for incubation with human plasma” value is reported as “+”. Further, the “Result for incubation with human IgG-Fc” value in the assay with human IgG-Fc is reported as “+”.
Turning to “04C: cellulose-bound 13-mer variant DCACHLGELVWCT-(βA)(βA) (DCACHLGELVWCT-{βAla-βAla-cellulose}; disulfide (positions not given here); not fully specified (bridges); printed as DCACHLGELVWCT-(βA)(βA); reading uncertain)”, the “Result for incubation with serum albumin” value with serum albumin was determined as 0. Further, the “Result for incubation with human plasma” value in assay [1] came to 0. Besides, the “Result for incubation with human IgG-Fc” value in the assay with human IgG-Fc is 0.
Turning to “06W: cellulose-bound 13-mer variant DCAWHWGELVWCT-(βA)(βA) (DCAWHWGELVWCT-{βAla-βAla-cellulose}; disulfide 2-12 (inferred); not fully specified (N-terminus); printed as DCAWHWGELVWCT-(βA)(βA); reading uncertain)”, the “Result for incubation with serum albumin” value in the assay on serum albumin was 0. The “Result for incubation with human plasma” value in assay [1] worked out at 0. In the assay on human IgG-Fc, the “Result for incubation with human IgG-Fc” value is listed as 0.
For the substance “09R: cellulose-bound 13-mer variant DCAWHLGERVWCT-(βA)(βA) (DCAWHLGERVWCT-{βAla-βAla-cellulose}; disulfide 2-12 (inferred); reading uncertain; also: printed as DCAWHLGERVWCT-(βA)(βA))”, in the assay on serum albumin, the “Result for incubation with serum albumin” value was 0. In addition, in assay [1], the “Result for incubation with human plasma” value is on record as “+”. Also, the “Result for incubation with human IgG-Fc” value in the assay with human IgG-Fc is on record as “+”.
As to “01N: cellulose-bound 13-mer variant NCAWHLGELVWCT-(βA)(βA) (NCAWHLGELVWCT-{βAla-βAla-cellulose}; disulfide 2-12 (inferred); reading uncertain; also: printed as NCAWHLGELVWCT-(βA)(βA))”, in the assay on serum albumin, the “Result for incubation with serum albumin” value came out at 0. For the same substance, the “Result for incubation with human plasma” value in assay [1] was found to be 0. Moreover, the “Result for incubation with human IgG-Fc” value in the assay on human IgG-Fc was “+”.
Consider “09D: cellulose-bound 13-mer variant DCAWHLGEDVWCT-(βA)(βA) (DCAWHLGEDVWCT-{βAla-βAla-cellulose}; disulfide 2-12 (inferred); reading uncertain; also: printed as DCAWHLGEDVWCT-(βA)(βA))”, for which the “Result for incubation with serum albumin” value with serum albumin was 0. Moreover, the “Result for incubation with human plasma” value in assay [1] is on record as 0. For the same substance, the “Result for incubation with human IgG-Fc” value in the assay on human IgG-Fc was found to be 0.
